Consider 3 compounds from US10015966B2, “Fungicidal pyrazole mixtures” (E I DU PONT DE NEMOURS AND COMPANY, priority 2012, dated 2018).

Holding throughout (format): in vivo
In one data set the test system is Phytophthora infestans. The settings on record: tomato late blight.
In the next data set the test system is Septoria nodorum. Kind of data set: Test E: preventive spray on wheat seedlings, Septoria glume blotch, visual disease rating. The settings on record: 200 ppm test suspension, preventive spray. The protocol: General protocol for preparing test suspensions for Tests A-I: the test compounds were first dissolved in acetone in an amount equal to 3% of the final volume and then suspended at the desired concentration (in ppm) in acetone and purified water (50/50 mix by volume) containing 250 ppm of the surfactant Trem® 014 (polyhydric alcohol esters). The resulting test suspensions were then used in Tests A-I. Each test was conducted in triplicate, and the results were averaged. Spraying a 200 ppm test suspension to the point of run-off on the test plants was the equivalent of a rate of about 800 g/ha. Unless otherwise indicated, the rating values indicate a 200 ppm test suspension was used. (An asterisk “*” next to the rating value indicates a 40 ppm test suspension was used.) The test suspension was sprayed to the point of run-off on wheat seedlings. The following day the seedlings were inoculated with a spore suspension of Septoria nodorum (the causal agent of Septoria glume blotch) and incubated in a saturated atmosphere at 24° C. for 48 h, and then moved to a growth chamber at 20° C. for 9 days, after which time visual disease ratings were made. Results for Tests A-I are given in Table A. In the Table, a rating of 100 indicates 100% disease control and a rating of 0 indicates no disease control (relative to the controls). A hyphen (-) indicates no test results.

A further data set deals with Rhizoctonia solani. Kind of data set: Test D: preventive spray on creeping bent grass seedlings, turf brown patch, disease rating. The settings on record: 200 ppm test suspension. The protocol:
General protocol for preparing test suspensions for Tests A-I: the test compounds were first dissolved in acetone in an amount equal to 3% of the final volume and then suspended at the desired concentration (in ppm) in acetone and purified water (50/50 mix by volume) containing 250 ppm of the surfactant Trem® 014 (polyhydric alcohol esters). The resulting test suspensions were then used in Tests A-I. Each test was conducted in triplicate, and the results were averaged. Spraying a 200 ppm test suspension to the point of run-off on the test plants was the equivalent of a rate of about 800 g/ha. Unless otherwise indicated, the rating values indicate a 200 ppm test suspension was used. (An asterisk “*” next to the rating value indicates a 40 ppm test suspension was used.) The test suspension was sprayed to the point of run-off on creeping bent grass (Agrostis sp.) seedlings. The following day the seedlings were inoculated with a bran and mycelial slurry of Rhizoctonia solani (the causal agent of turf brown patch) and incubated in a saturated atmosphere at 27° C. for 48 h, and then moved to a growth chamber at 27° C. for 3 days, after which time disease ratings were made. Results for Tests A-I are given in Table A. In the Table, a rating of 100 indicates 100% disease control and a rating of 0 indicates no disease control (relative to the controls). A hyphen (-) indicates no test results.

For data set [1], the system named is Puccinia recondita f. sp. tritici. In words: Test G: curative spray on inoculated wheat seedlings, wheat leaf rust, visual disease rating. The note with it: 200 ppm test suspension. The protocol:
General protocol for preparing test suspensions for Tests A-I: the test compounds were first dissolved in acetone in an amount equal to 3% of the final volume and then suspended at the desired concentration (in ppm) in acetone and purified water (50/50 mix by volume) containing 250 ppm of the surfactant Trem® 014 (polyhydric alcohol esters). The resulting test suspensions were then used in Tests A-I. Each test was conducted in triplicate, and the results were averaged. Spraying a 200 ppm test suspension to the point of run-off on the test plants was the equivalent of a rate of about 800 g/ha. Unless otherwise indicated, the rating values indicate a 200 ppm test suspension was used. (An asterisk “*” next to the rating value indicates a 40 ppm test suspension was used.) Wheat seedlings were inoculated with a spore suspension of Puccinia recondita f. sp. tritici (the causal agent of wheat leaf rust) and incubated in a saturated atmosphere at 20° C. for 24 h, and then moved to a growth chamber at 20° C. for 2 days. At the end of this time the test suspension was sprayed to the point of run-off, and then the seedlings were moved to a growth chamber at 20° C. for 4 days after which time visual disease ratings were made. […]

Data set [2] is described as follows: Single oral dose pharmacokinetics in rats, plasma and fat analysed by LC/MS (fat:plasma ratio). The note with it: single dose via oral gavage, compared to corresponding compounds with a nonhydrogen substituent at the para position of the phenyl ring connected to R^1 and R^2. The protocol:
The pharmacokinetic properties of compounds of Formula 1 can be measured using a wide variety of assay protocols known in the science of pharmacology. In one illustrative method involving a single oral dose, three male and three female rats receive a single dose of a test substance via oral gavage. Approximately 0.25 mL of blood is collected via tail vein immediately prior to dosing, and then at 0.25, 0.5, 1, 2, 4, 8, 12, 24 h and every 24 h thereafter until sacrifice. At sacrifice, fat is also collected to determine the fat:plasma ratio at sacrifice. Blood is collected into tubes that contain ethylenediaminetetracetic acid (EDTA) and centrifuged at 2500×g in order to separate plasma from blood cells. The plasma is then extracted by protein precipitation using, for example, acetonitrile and a protein precipitation plate (e.g., Strata Impact Protein Precipitation Plate, part number CEO-7565 of Phenomenex, Torrance, Calif., U.S.A.) following directions provided for the plate. Alternatively, the plasma is extracted just with acetonitrile, vortexed (i.e. mixed using a vortex mixer), and centrifuged to pellet the proteins. After removal of the proteins, the plasma is analyzed for parent compound and/or metabolites by liquid chromatography-mass spectrometry (LC/MS). The fat is homogenized and extracted by an organic solvent such as acetonitrile. The extract is then analyzed for parent compound and/or metabolites by LC/MS. The plasma pharmacokinetic data is then analyzed using nonlinear modeling software (e.g., WinNonlin™ from Pharsight, Cary, N.C., U.S.A.) to determine half-life of the administered compound in plasma, the time after administration when the maximum plasma concentration is reached (Tmax), the maximum plasma concentration (Cmax) and the area under the plasma concentration curve (AUC). As analysis of fat requires rat sacrifice, fat data is obtained at single time points (i.e. the time of rat sacrifice). However, by using multiple rats sacrificed after different intervals from time of dosing, such parameters as Cmax for fat are determined.

Like-named read-outs stand apart in the source and are kept apart here. Marks after values point to notes of the source that are not given here.

On to `Cc1nn(C)c(Nc2ccccc2F)c1-c1ccc(F)cc1Cl` [Compound 1, 4-(2-chloro-4-fluorophenyl)-N-(2-fluorophenyl)-1,3-dimethyl-1H-pyrazol-5-amine], for which the “Test C rating (% disease control)” value in the data set with Phytophthora infestans (200 ppm test suspension, preventive spray) was determined as 0%. Moreover, the “Test E rating (% disease control)” value with Septoria nodorum worked out at 0%. In addition, the “Test D rating (% disease control)” value in the data set with Rhizoctonia solani worked out at 99%.

For `Cc1nn(C)c(Nc2c(F)cccc2F)c1-c1ccc(F)cc1Cl` [Compound 2, 4-(2-chloro-4-fluorophenyl)-N-(2,6-difluorophenyl)-1,3-dimethyl-1H-pyrazol-5-amine], the “Test G rating (% disease control)” value in data set [1] was found to be 0%. For the same compound, in the data set with Septoria nodorum, the “Test E rating (% disease control)” value is 87%.

As to `Cc1nn(C)c(Nc2c(F)cccc2Cl)c1-c1ccc(F)cc1Cl` [Compound 3, 4-(2-chloro-4-fluorophenyl)-N-(2-chloro-6-fluorophenyl)-1,3-dimethyl-1H-pyrazol-5-amine], the “Test C rating (% disease control)” value with Phytophthora infestans (asterisked rating: test suspension other than 200 ppm) is reported as 0* %. Moreover, the “Test G rating (% disease control)” value in data set [1] came out at 100%. In the data set with Septoria nodorum, the “Test E rating (% disease control)” value amounted to 99%. In addition, the distribution into fat entry in data set [2] was “significantly diminished distribution into fat”.
